We go through 2 compounds from patent US20230219898A1, “COMPOUNDS AND METHODS FOR BLOCKING APOPTOSIS AND INDUCING AUTOPHAGY” (President and Fellows of Harvard College, priority 2020, published 2023).

Assay [1] has as its target T1, GST-TRADD (Homo sapiens, UniProt Q15628).
T1 construct: cDNA encoding GST-tagged hTRADD (Full length or aa180-312); made in house; host or cells: HEK293T (pEBG plasmid)
Put plainly: Thermal shift assay with GST-TRADD. Type of assay: binding. To be noted: GST-TRADD 50 μM, compound 250 μM. From the text: Thermal unfolding of GST-TRADD is monitored using SYPRO Orange. Data were collected in the presence of ICCB-19 and Apt-1, leading to a rightward shift in the unfolding transition. The apparent melting temperature (Tm) is the peak in the derivative of the unfolding curve (dF/dT), which is used as an indicator of thermal stability.
Full-length cDNAs for mouse/human TRADD were PCR-amplified from the plasmid library and cloned into pcDNA3.1 using Phanta Max Super-Fidelity DNA Polymerase (Vazyme Biotech Co., Ltd) with appropriate tags. Mutant hTRADD were generated using MutExpress II mutagenesis kit (Vazyme Biotech Co., Ltd). […]
To determine stability, purified proteins were made to a final concentration of 1 μg/l. […] The reaction was run from 25C, ramping up in increments of 0.05° C./s to a final temperature of 95C with fluorescence detection throughout the experiment to generate a dataset. Melting temperature of the protein (Tm) was determined by performing non-linear fitting of the dataset to a Boltzmann Sigmoidal curve in GraphPad Prism with the following equation: Y=Bottom+(Top-Bottom)/[1+exp(Tm-X/Slope)], where Y=fluorescence emission in arbitrary units; X=temperature; Bottom=baseline fluorescence at low temperature; Top=maximal fluorescence at top of the dataset; Slope=describes the steepness of the curve, with larger values denoting shallower curves.

For assay [2], the system named is H4-GFP-LC3 cells. Put plainly: Autophagy induction, GFP-LC3 puncta and LC3II immunoblotting. In kind it is cell-based. To be noted: 10 μM, 6 h (zVAD.fmk 20 μM). How it is done:
Mean ±s.e.m. (n=5). One-way ANOVA, post hoc Dunnett's test.
Autophagy was determined by LC3II levels using immunoblotting. SE=shorter exposure, LE=longer exposure.
Autophagy was measured by LC3II induction and p62 reduction by immunoblotting. The levels of LC3II in cells treated with both Apt-1 and NH4Cl, the latter of which inhibits lysosome, were higher than that treated with either Apt-1 or NH4Cl alone. Thus, ICCB-19/Apt-1, but not ICCB-19i, induce autophagic flux. Mean ±s.e.m. from technical triplicates (n=3), representative of 3 independent experiments. Two-tailed t-test. **P=0.0037.
Levels of LC3II determined by immunoblotting.
Cells were seeded at 2.5×10^4 cells per well on poly-L-lysine coated glass cover slips and transfected as described. Cells were fixed in 4% paraformaldehyde, followed by permeabilization with 0.1% Triton X-100. Nuclei were stained using DAPI (Sigma). Cells expressing GFP or RFP-fusion proteins were imaged with an Olympus Fluoview FV1000 confocal microscope (Olympus) using a 40×objective. For GFP-LC3 and DsRed-FYVE puncta quantification, the average spot intensity in 1000 cells from each indicated sample was determined. Images were processed using ImageJ and Photoshop CC. Concentration of compounds used to induce or block autophagy: 10 μM (Apt-1, ICCB-19, ICCB-19i or Spautin-1), for 6 h or as indicated.
For orientation: A western blot detects proteins with antibodies after separation by electrophoresis.

The subject of assay [3] is H4 cells. Put plainly: Long-lived protein degradation assay. Type of assay: cell-based. To be noted: 10 μM, 6 h. How it is done: The rates of long-lived protein turnover in H4 cells treated with indicated compounds (10 μM, 6 h); rapamycin as positive control. Values expressed as fold changes relative to normal control cells. Mean ±s.e.m. from 4 independent experiments (n=4). One-way ANOVA, post hoc Dunnett's test. **P=0.002, 0.0023 (left to right); *P=0.0229; n.s. not significant (P=0.8669).
H4 cells were cultured with L-[3,4,5-^3H(N)]-leucine (0.1 μCi/ml) (PerkinElmer Life Sciences) for 24 h and chased in media with nonradioactive leucine for 18 h to let the degradation of short-lived proteins happen. Then the media was changed and incubated for additional 6 h along with different compounds (10 μM Apt-1, 10 μM ICCB-19, 10 μM ICCB-19i, 1 μM rapamycin). The media were recovered and treated with 10% trichloroacetic acid to separate trichloroacetic acid-soluble (amino acids) and trichloroacetic acid-insoluble (proteins) fractions. The cells were completely dissolved with 1N NaOH. Radioactivity was measured with a liquid scintillation analyzer (PerkinElmer). Long-lived protein degradation was calculated by dividing trichloroacetic acid-soluble radioactivity in the media by total radioactivity detected in the cells and media. The values were expressed as changes in fold from the value obtained in control cells.

In assay [4] the test system is Htt-103Q, α-synuclein and tau expressing cells. The assay is described as follows: Misfolded protein accumulation and cell death in cell models (Htt-103Q, α-synuclein, tau). Type of assay: cell-based. Conditions: 10 μM. How it is done: Nuclei were labeled with DAPI. The amount of Htt-Q103-EGFP aggregates per mm^2 was quantified using ImageJ. Scale bar is 100 μm. Cell viability was measured by CellTiter-Glo assay. Survival rate is compared with vehicle-treated cells. Mean ±s.d. from technical triplicates (n=3), representative of 3 independent experiments. One-way ANOVA, post hoc Dunnett's tests. ***P<0.001; n.s. not significant, (P=0.8556, 0.9195, 0.8613, 0.5687, 0.5304, 0.9998, 0.6029, 0.2821 (left to right)).
RFP-α-Synuclein was quantified by Fluorescence/Cell (RLU) by ImageJ.
Mean ±s.d. from technical triplicates (n=3), representative of 3 independent experiments. Two-way ANOVA, post hoc Bonferroni's tests. ***P<0.001; *P=0.0262, 0.0367 (left to right).
Mean ±s.d. from technical triplicates (n=3), representative of 3 independent experiments. Two-way ANOVA, post hoc Bonferroni's tests.

T1 sequence (Q15628 whole entry, the tested form may be a part): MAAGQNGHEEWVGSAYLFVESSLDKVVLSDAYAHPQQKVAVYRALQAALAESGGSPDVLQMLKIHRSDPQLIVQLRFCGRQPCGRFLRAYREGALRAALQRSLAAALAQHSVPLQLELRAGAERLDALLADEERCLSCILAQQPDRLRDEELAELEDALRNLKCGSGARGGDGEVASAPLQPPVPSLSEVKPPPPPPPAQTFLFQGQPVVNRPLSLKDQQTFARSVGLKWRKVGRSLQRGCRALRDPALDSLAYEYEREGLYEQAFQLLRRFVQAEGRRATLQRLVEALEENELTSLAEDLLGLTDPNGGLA

`CN1CCN=C1SC(C(=O)NC1CCCCCC1)c1ccccc1` (centres unmarked) [Compound 30]: in assay [1], the “increase of Tm of GST-TRADD” value stood at 3.7 °C. Further, the induction of autophagy result in assay [2] was “effectively induced autophagy”. Besides, in assay [3], the “degradation of long-lived proteins” value is listed as “effectively induced”. Further, in assay [4], the “protein accumulation and cell death with Htt-103Q, α-synuclein, tau” value was “reduced protein accumulation and cell death”.
Turning to `O=C(CSC1=NCCN1)NC1CCCCCC1` [ICCB-19], the “increase of Tm of GST-TRADD” value in assay [1] amounted to 3.2 °C. For the same compound, the induction of autophagy result in assay [2] is “effectively induced autophagy”. The “degradation of long-lived proteins” value in assay [3] is recorded as “effectively induced”. Further, the “protein accumulation and cell death with Htt-103Q, α-synuclein, tau” value in assay [4] was “reduced protein accumulation and cell death”.
